Assay results as given in patent US20250275968A1, “INHIBITORS OF TAU PROTEINS” (DEUTSCHES ZENTRUM FÜR NEURODEGENERATIVE ERKRANKUNGEN E.V., priority 2022, published 2025).
Structures can show the parent of a compound that is named as a salt.

Experiments:
[1] = molecular target: T1, tau(244-372, 13818 Da) (Homo sapiens, UniProt P10636); assay: ESI-MS covalent modification of tau; assay type: binding
T1 construct: comprising residues 244-372 of 2N4R Tau
Experimental: This analysis was performed using the 4R Tau construct (K18 construct, 13818 Da) comprising residues 244-372 of 2N4R Tau. Compounds (330 μM) were incubated with 4R Tau (65 μM) for 16 h at 37° C. in 10 mM ammonium bicarbonate at pH 7.0. The compound/4R Tau mixtures were injected into an LC system (ACQUITY) coupled to a single quadrupole mass detection system (SQ Detector 2, Waters) with diode-array detectors (DAD). The DAD spectrum covers wavelengths of 210-400 nm. Components of the compound-4R Tau mixture were separated using a BioResolve RP mAb column (Waters) with a gradient of 5-95% buffer B (buffer A is 0.1% TFA in water and buffer B is 0.1% TFA in acetonitrile). Covalent modification of 4R Tau corresponded to mass additions of 500 Da (Osimertinib) and 486 Da (AZ7550 or AZ5104).

[2] = tested on: HEK293T biosensor cells expressing the human tau repeat domain (RD) harboring the P301L/V337M mutation (TauRD^LM-GFP); assay: HEK biosensor cell tau seeding assay; assay type: cell-based; conditions: for compound concentration up to which total amount of cells remained close to 100% (low toxicity): HEK biosensor cells, relative to vehicle (DMSO)
Experimental: Compound stock solutions were prepared as 10 mM compound in DMSO.
HEK293T biosensor cells expressing the human tau repeat domain (RD) harboring the P301L/V337M mutation and fused to a C-terminal GFP tag (named TauRD^LM-GFP) were engineered to probe Tau seeding in cellula (Reference: Liu, S., Hossinger, A., Heumüller, S E. et al. Highly efficient intercellular spreading of protein misfolding mediated by viral ligand-receptor interactions. Nat Commun 12, 5739 (2021). https://doi.org/10.1038/s41467-021-25855-2). HEK cells expressing the P301L human full-length Tau, C-terminally tagged with GFP were incubated with pre-sonicated hTau40^P301L fibrils to induce Tau aggregate formation. Cells were harvested and the resulting cell lysate was used to seed Tau aggregation in further experiments with HEK TauRD^LM-GFP cells.
In a typical seeded assay, HEK cells were incubated with cell lysate, compounds (0-40 μM) and lipofectamine for 22-48 hours. Negative control experiments in the absence of compounds (only with vehicle DMSO) and in the presence of cell lysate were performed in parallel.
Dose response curves were constructed by quantifying the number of cells with aggregates for each compound concentration. The curves were fitted with a sigmoid function using Graphpad PRISM version 8. The inhibitory concentration at 50% activity (IC50) was determined for each compound.

[3] = tested on: 2N4R tau; assay: In vitro seeded aggregation/fibrillization assay of 2N4R tau (ThT fluorescence); assay type: biochemical; conditions: tau:compound mole ratios 1:3 and 1:10
Experimental: Aggregation of 2N4R Tau was performed using a previously published co-factor-free aggregation protocol, with a few modifications (Reference: Chakraborty, P. et al. Co-factor-free aggregation of tau into seeding-competent RNA-sequestering amyloid fibrils. Nat. Commun. 12, 4231 (2021)). Aggregation experiments used the Tau protein stock prepared in 25 mM HEPES pH 7.4, 1 mM TCEP. Stocks of compounds were prepared in aggregation buffer (25 mM HEPES, 10 mM KCl, 5 mM MgCl2, pH 7.2) or in DMSO (10 mM compound).
To prepare the Tau fibril seeds by de novo aggregation, 2N4R Tau at a monomer concentration of 25 μM was diluted in aggregation buffer. The working concentration of TCEP in the aggregation mixture was <25 μM after dilution of the stock. To this mixture, Thioflavin T (ThT) was added to a final concentration of 50 μM. A total volume of 100 μL of the Tau-ThT mixture was incubated in a well of a 96-well microplate (Greiner Bio-one), in the presence of two polytetrafluoroethylene beads. The microplate was subjected to a program implemented in a Tecan Spark plate reader that involved incubating at 37° C., with intervals of double orbital shaking and ThT fluorescence emission measurement. The excitation wavelength for ThT was set as 430 nm and the emission wavelength was 485 nm. Details of this plate reader program were published previously (Reference: Chakraborty, P. et al. Co-factor-free aggregation of tau into seeding-competent RNA-sequestering amyloid fibrils. Nat. Commun. 12, 4231 (2021)). […] The fibril-containing mixture collected from the microplate served as a seeding mixture for the subsequent aggregation assays.
Seeded aggregation assays were performed as described above but with 1.0% of the well volume occupied by the seeding mixture sonicated for 1 minute. The assays were performed in the presence and absence of compounds, and working concentrations ranged from 0-250 μM compound.
Analyses of the fluorescence curves were performed using Graphpad PRISM version 8. Fluorescence data were fit to a sigmoid function. The number of hours corresponding to half-maximal ThT Fluorescence™ as well as the span of fluorescence intensity (Span) were determined for each sigmoid curve. Statistically significant differences were determined by one-way ANOVA analysis with Dunnett's multiple comparison test or unpaired t-test.

[4] = tested on: tau-induced degeneration of Drosophila eyes (GMR-Gal4/WT tau); assay: Drosophila neurodegeneration model (eye degeneration); assay type: in vivo
Experimental: Stock solutions of individual compounds were prepared by dissolving 10 mg of the compound in 100 μl of 100% DMSO. Osimertinib, Osimertinib mesylate and AZ7550 mesylate were orally fed to the flies by mixing them with food. The final concentration of each compound, which was used for treating the Drosophila, was derived on the basis of recommended concentrations for human use (reference concentration) based on body weight.
We have used three concentrations for each compound. One was equal to the reference concentration, and two were higher than the reference concentration. Final concentrations of different compounds mixed with fly food are: Osimertinib mesylate, […]; Osimertinib, […]; AZ 7550 mesylate, 10 µM and 20 µM. After hatching, first instar larvae were transferred onto the food containing one of the compounds. Food mixed with drug at required concentration was replaced with fresh food every 48 h.
Light microscopy was performed after mounting the fly heads on the glass slide using a double-sided adhesive tape. Full-eye images were captured with the help of an Infinity Analyze camera attached to an Olympus SZX7 microscope with a halogen light source. Total eye surface area and degenerated eye surface area were marked and calculated with Infinity Analyze software (Lumenera corporation). Percentage of degenerated area was calculated and plotted using GraphPad Prism 8.
After the eclosion, treated and control flies (2-3 days old) were fixed in 1% formaldehyde for two hours, followed by serial dehydration steps of 12 hrs each in 25%, 50%, 75% and 100% ethanol were carried out. Flies were stored in 100% ethanol and dried with CPD before mounting on the stab for imaging. Eye Images were captured at 150× and analyzed using Infinity Analyze software.

T1 sequence (P10636 561-689): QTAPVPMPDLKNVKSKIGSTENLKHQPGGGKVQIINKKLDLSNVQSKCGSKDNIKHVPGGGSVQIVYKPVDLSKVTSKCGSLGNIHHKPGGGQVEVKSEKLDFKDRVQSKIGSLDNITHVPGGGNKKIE

SMILES	covalent modification of cysteines in tau (ESI-MS) [1]	compound concentration up to which total amount of cells remained close to 100% (low toxicity) [2]	inhibition of aggregation of tau^wt and tau^3R compared with cysteine-free tau^C291S,C322S [3]	tau-induced degeneration of Drosophila eyes (percent degeneration, light microscopy) ([4]; GMR-Gal4/WT tau flies treated in food from larvae stage to adult stage)	inhibition of seeded aggregation of tau in HEK biosensor cells ([2]; 0.25 μM or 7.5 μM, 22 hours, lipofectamine)	aggregate formation in cells ([2]; higher concentration (7.5 μM), 22 hours)	signs of eye degeneration in SEM micrographs ([4]; compared to control with GMR-Gal4/WT tau)
C=CC(=O)Nc1cc(Nc2nccc(-c3c[nH]c4ccccc34)n2)c(OC)cc1N(C)CCN(C)C [Compound 3, N-[2-[[2-(dimethylamino)ethyl]methylamino]-5-[[4-(1H-indol-3-yl)-2-pyrimidinyl]amino]-4-methoxyphenyl]-2-Propenamide]	confirms covalent modification of cysteines	about 5.0 μM	–	–	–	–	–
C=CC(=O)Nc1cc(Nc2nccc(-c3cn(C)c4ccccc34)n2)c(OC)cc1N(C)CCN(C)C [Osimertinib mesylate, N-[2-(2-Dimethylaminoethylmethylamino)-4-methoxy-5-[[4-(1-methylindol-3-yl)pyrimidin-2-yl]amino]phenyl]prop-2-enamide Mesylate Salt]	–	–	more effectively inhibits	rescue tau-induced degeneration of Drosophila eyes	–	–	–
C=CC(=O)Nc1cc(Nc2nccc(-c3cn(C)c4ccccc34)n2)c(OC)cc1N(C)CCN(C)C [Osimertinib, N-[2-(2-Dimethylaminoethylmethylamino)-4-methoxy-5-[[4-(1-methylindol-3-yl)pyrimidin-2-yl]amino]phenyl]prop-2-enamide]	confirms covalent modification of cysteines	about 5.0 μM	–	–	inhibits the seeded aggregation of tau	decreased aggregate formation	visibly reduced signs of degeneration
